A short description of data set [1]: Particle size, PDI and encapsulation efficiency of LNP@mRNA. It counts as physicochemical. Particulars: Example 26: LNP@mRNA of compound, cholesterol, DOPE, PEG-DMG 35:46.5:16:2.5; luciferase mRNA. Here is the method:
(§1) Compounds 1, 2, 17, 27 or 33 was each dissolved in the first solution with cholesterol, DOPE and PEG-DMG in a molar ratio of 35:46.5:16:2.5, and luciferase mRNA was dissolved in the second solution. […] Microfluidics was utilized to quickly mix the two phases, and dialysis or tangential flow was utilized to replace the buffer environment with PBS (pH 7.4) and thus remove ethanol, so as to prepare and afford five kinds of LNP@mRNAs, respectively.
Microfluidics was utilized to quickly mix the two phases, and dialysis or tangential flow was utilized to replace the buffer environment with PBS (pH 7.4) and thus remove ethanol, so as to prepare and afford LNP@mRNA.
The particle size, PDI and encapsulation efficiency of each of the above-mentioned LNP@mRNAs were determined, and the results were successively shown in Table 3.

Test in data set [2]: as above
It counts as physicochemical. The note with it: Example 26 LNP@mRNA, summary of Table 1.

The test system of data set [3] is mice. Put plainly: Organ distribution of mRNA expression in mice after intravenous (tail vein) injection of LNP@mRNA. It counts as in vivo. Particulars: 6 hours after intravenous (tail vein) injection, anatomical image. Here is the method: as §1
(§2) The prepared LNP@mRNAs were each injected into mice via tail vein or muscle, and the fluorescence intensities and organ distribution in mice were determined 6 hours later.

Data set [4] relates to mice. Briefly: Fluorescence intensity in mice after intramuscular injection of LNP@mRNA (luciferase mRNA). In kind it is in vivo. Particulars: for maximum fluorescence intensity: intramuscular injection of LNP@mRNA (compound and other three lipids), FIG. 7. Here is the method: as §1, §2
The prepared mRNA@LNPs were each injected into mice via intramuscular injection, and the fluorescence intensities and organ distribution in mice were determined 6 hours later.

Molecules are shown by their SMILES.

Turning to `CCCCCCCCC(CCCCCC)C(=O)OCCN(CCCN(C)CCCN(CCOC(=O)C(CCCCCC)CCCCCCCC)CCOC(=O)C(CCCCCC)CCCCCCCC)CCOC(=O)C(CCCCCC)CCCCCCCC` (centres unmarked) [Compound 1], in data set [1], the Encapsulation efficiency was 96%, the PDI stood at 0.14 and the Particle size was found to be 95 nm. Also, in data set [2], the “encapsulation efficiency (in words)” value is reported as “relatively high encapsulation efficiency” and the “particle size (in words)” value was “relatively small particle size”.

Regarding `CCCCCCC(CCCC)C(=O)OCCN(CCCN(C)CCCN(CCOC(=O)C(CCCC)CCCCCC)CCOC(=O)C(CCCC)CCCCCC)CCOC(=O)C(CCCC)CCCCCC` (centres unmarked) [Compound 2], in data set [1], the Encapsulation efficiency was 86%, the PDI is 0.20 and the Particle size amounted to 84 nm. In data set [3], the “mRNA expression in liver” value was “few mRNA was expressed in liver” and the “mRNA expression in spleen” value is “mainly expressed in spleen”. Besides, in data set [2], the “encapsulation efficiency (in words)” value was “relatively high encapsulation efficiency” and the “particle size (in words)” value is recorded as “relatively small particle size”.

Consider `CCCCCCCCC(CCCCCC)C(=O)OCCCCCCN(CCCCCCOC(=O)C(CCCCCC)CCCCCCCC)CCCN(C)CCCN(CCCCCCOC(=O)C(CCCCCC)CCCCCCCC)CCCCCCOC(=O)C(CCCCCC)CCCCCCCC` (centres unmarked) [Compound 17], for which, in data set [1], the Encapsulation efficiency is 96%, the PDI came out at 0.19 and the Particle size came out at 184 nm. For the same molecule, in data set [2], the “encapsulation efficiency (in words)” value was “relatively high encapsulation efficiency”.

In data set [1], `CCCCCCC(CCCC)C(=O)OCCCCCCN(CCCCCCOC(=O)C(CCCC)CCCCCC)CCCN(C)CCCN(CCCCCCOC(=O)C(CCCC)CCCCCC)CCCCCCOC(=O)C(CCCC)CCCCCC` (centres unmarked) [Compound 27] registered an Encapsulation efficiency of 57%, a PDI of 0.21 and a Particle size of 90 nm. The maximum fluorescence intensity in data set [4] is 3.39*10^5. In data set [3], the “mRNA expression in liver” value is on record as “few mRNA was expressed in liver” and the “mRNA expression in spleen” value is listed as “mainly expressed in spleen”. The “particle size (in words)” value in data set [2] is listed as “relatively small particle size”.

Regarding `CCCCCCC(CCCC)C(=O)OCCCCOC(=O)CCN(CCCN(C)CCCN(CCC(=O)OCCCCOC(=O)C(CCCC)CCCCCC)CCC(=O)OCCCCOC(=O)C(CCCC)CCCCCC)CCC(=O)OCCCCOC(=O)C(CCCC)CCCCCC` (centres unmarked) [Compound 33], in data set [1], the Encapsulation efficiency was 96%, the PDI is given as 0.11 and the Particle size was 86 nm. The maximum fluorescence intensity in data set [4] is on record as 1.59*10^7. For the same molecule, in data set [4] (intramuscular injection, ratio of maximum fluorescence intensities), the “expression relative to LNP@mRNA prepared by Compound 27” value is given as 46.9 times. In addition, in data set [3], the “mRNA expression in liver” value is reported as “mainly expressed in liver” and the “mRNA expression in spleen” value was “some mRNA was expressed in spleen”. Moreover, in data set [2], the “encapsulation efficiency (in words)” value is on record as “relatively high encapsulation efficiency” and the “particle size (in words)” value is “relatively small particle size”.
